From ChEMBL document CHEMBL5390243, “Catecholamine Derivatives: Natural Occurrence, Structural Diversity, and Biological Activity” (J Nat Prod, 2023)

Tests used:
[1] = Metal chelating activity assessed as iron chelation by CAS assay
RAW264.7 [2] = assay: Anti-inflammatory activity against mouse RAW264.7 cells assessed as inhibition of LPS-induced NO production at 10 uM preincubated with compound for 2 hrs followed by LPS stimulation and measured after 24 hrs by Griess reagent based analysis; assay type: functional, cell-based
RAW264.7 [3] = assay: Anti-inflammatory activity against mouse RAW264.7 cells assessed as inhibition of LPS-induced NO production at 100 ng/ml pretreated with compound for 2 hrs followed by LPS stimulation and measured after 24 hrs by Griess reagent based analysis; assay type: functional; design: scale not given: the % may be the effect or the level left; settings: time 26 hrs
RAW264.7 [4] = assay: Antiinflammatory activity against LPS-induced mouse RAW264.7 cells assessed as reduction in IL-6 mRNA expression at 10 uM by RT-PCR analysis; assay type: functional; design: scale not given: the % may be the effect or the level left
HeLa = assay: Cytotoxicity against human HeLa cells assessed as reduction in cell viability measured after 24 hrs by MTT assay; assay type: functional, cell-based
MCF7 = assay: Cytotoxicity against human MCF7 cells assessed as reduction in cell viability measured after 24 hrs by MTT assay; assay type: functional, cell-based; settings: MCF7, 24 h
[5] = biological target: Casein kinase I isoform delta (Homo sapiens, UniProt P48730); assay: Inhibition of N-terminal GST-tagged human recombinant CK1delta (1 to 294 residues) expressed in Escherichia coli incubated for 60 mins in presence of ATP by Kinase-glo luminescent assay
Sequence of Casein kinase I isoform delta (P48730 whole entry, the tested form may be a part, canonical isoform): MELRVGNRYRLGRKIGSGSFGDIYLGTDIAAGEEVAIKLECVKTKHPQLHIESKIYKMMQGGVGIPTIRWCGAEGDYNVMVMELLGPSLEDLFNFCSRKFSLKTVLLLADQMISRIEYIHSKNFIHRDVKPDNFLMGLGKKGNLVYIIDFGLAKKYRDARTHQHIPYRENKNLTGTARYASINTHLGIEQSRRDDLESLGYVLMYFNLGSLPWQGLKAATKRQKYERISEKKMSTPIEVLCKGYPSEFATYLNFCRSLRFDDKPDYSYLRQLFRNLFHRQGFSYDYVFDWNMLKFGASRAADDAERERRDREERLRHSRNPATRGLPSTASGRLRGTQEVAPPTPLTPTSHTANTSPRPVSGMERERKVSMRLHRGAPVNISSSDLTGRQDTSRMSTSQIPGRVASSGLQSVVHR

[6] = biological target: Cyclin-dependent kinase 5/CDK5 activator 1 (Homo sapiens, UniProt Q00535); assay: Inhibition of N-terminal full length human recombinant CDK5/p25 expressed in baculovirus-infected Sf21 cells incubated for 60 mins in presence of ATP by kinase-glo luminescent assay
Sequence of Cyclin-dependent kinase 5/CDK5 activator 1 (Q00535 whole entry): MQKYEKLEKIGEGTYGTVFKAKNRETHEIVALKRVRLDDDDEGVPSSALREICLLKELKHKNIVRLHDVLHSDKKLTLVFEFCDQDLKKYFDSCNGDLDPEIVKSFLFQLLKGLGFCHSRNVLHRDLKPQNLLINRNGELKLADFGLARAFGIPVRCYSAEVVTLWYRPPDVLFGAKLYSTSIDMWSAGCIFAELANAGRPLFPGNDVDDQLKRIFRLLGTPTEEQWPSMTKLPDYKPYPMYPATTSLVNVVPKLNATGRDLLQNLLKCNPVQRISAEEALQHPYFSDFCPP
Sequence of Cyclin-dependent kinase 5/CDK5 activator 1 (Q15078 whole entry, further chain): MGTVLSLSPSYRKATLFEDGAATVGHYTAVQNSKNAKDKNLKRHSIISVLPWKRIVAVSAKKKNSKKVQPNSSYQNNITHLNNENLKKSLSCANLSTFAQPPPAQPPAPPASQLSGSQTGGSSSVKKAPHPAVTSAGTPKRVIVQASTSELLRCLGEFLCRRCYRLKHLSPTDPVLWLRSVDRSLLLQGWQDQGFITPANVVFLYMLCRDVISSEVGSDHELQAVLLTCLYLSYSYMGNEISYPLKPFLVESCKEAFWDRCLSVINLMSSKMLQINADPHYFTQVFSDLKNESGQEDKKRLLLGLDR

[7] = biological target: Glycogen synthase kinase-3 beta (Homo sapiens, UniProt P49841); assay: Inhibition of N-terminal His6-tagged human recombinant GSK3beta expressed in baculovirus-infected Sf21 cells incubated for 60 mins in presence of ATP by ADP-glo analysis
Sequence of Glycogen synthase kinase-3 beta (P49841 whole entry): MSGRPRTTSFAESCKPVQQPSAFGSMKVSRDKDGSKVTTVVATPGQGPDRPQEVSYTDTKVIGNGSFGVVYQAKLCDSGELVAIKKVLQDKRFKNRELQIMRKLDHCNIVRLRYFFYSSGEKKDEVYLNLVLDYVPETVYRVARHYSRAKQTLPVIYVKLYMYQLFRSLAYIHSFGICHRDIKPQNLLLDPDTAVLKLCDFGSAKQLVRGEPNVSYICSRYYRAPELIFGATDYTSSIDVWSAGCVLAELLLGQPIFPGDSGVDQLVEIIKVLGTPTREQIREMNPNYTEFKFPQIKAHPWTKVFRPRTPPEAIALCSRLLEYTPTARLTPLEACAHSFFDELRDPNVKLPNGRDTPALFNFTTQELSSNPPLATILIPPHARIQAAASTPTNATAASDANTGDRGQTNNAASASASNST

Acetylcholinesterase [8] = biological target: T1, Acetylcholinesterase (Homo sapiens, UniProt P22303); assay: Inhibition of human AchE using acetylthiocholine iodide as substrate incubated for 20 mins by Ellman's assay; settings: read-out: EC50 (the source's name)
T1 sequence (P22303 whole entry): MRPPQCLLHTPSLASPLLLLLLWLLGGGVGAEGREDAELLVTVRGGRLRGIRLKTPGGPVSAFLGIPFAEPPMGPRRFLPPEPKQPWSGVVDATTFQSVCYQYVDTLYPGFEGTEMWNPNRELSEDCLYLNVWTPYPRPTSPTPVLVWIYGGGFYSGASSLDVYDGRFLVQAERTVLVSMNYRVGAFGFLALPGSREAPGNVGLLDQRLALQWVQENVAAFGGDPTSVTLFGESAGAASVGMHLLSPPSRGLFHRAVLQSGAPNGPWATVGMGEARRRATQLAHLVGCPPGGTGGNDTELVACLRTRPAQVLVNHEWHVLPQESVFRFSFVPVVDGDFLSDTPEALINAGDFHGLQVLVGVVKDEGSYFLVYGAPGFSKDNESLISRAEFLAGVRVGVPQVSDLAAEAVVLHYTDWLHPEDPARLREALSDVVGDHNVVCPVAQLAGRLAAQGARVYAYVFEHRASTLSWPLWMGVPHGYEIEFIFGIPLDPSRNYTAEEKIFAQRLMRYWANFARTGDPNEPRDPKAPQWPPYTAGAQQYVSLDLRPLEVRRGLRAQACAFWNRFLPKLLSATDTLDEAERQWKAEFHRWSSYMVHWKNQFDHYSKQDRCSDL

SGC-7901 = assay: Cytotoxicity against human SGC-7901 cells assessed as reduction in cell viability measured after 72 hrs by MTT assay; assay type: functional, cell-based; settings: SGC-7901, 72 h
[9] = Antioxidant activity assessed as DPPH radical scavenging activity; assay type: functional
Cholinesterase = Cholinesterase (Homo sapiens, UniProt P06276); assay: Inhibition of butyrylcholinesterase (unknown origin)
Sequence of Cholinesterase (P06276 whole entry): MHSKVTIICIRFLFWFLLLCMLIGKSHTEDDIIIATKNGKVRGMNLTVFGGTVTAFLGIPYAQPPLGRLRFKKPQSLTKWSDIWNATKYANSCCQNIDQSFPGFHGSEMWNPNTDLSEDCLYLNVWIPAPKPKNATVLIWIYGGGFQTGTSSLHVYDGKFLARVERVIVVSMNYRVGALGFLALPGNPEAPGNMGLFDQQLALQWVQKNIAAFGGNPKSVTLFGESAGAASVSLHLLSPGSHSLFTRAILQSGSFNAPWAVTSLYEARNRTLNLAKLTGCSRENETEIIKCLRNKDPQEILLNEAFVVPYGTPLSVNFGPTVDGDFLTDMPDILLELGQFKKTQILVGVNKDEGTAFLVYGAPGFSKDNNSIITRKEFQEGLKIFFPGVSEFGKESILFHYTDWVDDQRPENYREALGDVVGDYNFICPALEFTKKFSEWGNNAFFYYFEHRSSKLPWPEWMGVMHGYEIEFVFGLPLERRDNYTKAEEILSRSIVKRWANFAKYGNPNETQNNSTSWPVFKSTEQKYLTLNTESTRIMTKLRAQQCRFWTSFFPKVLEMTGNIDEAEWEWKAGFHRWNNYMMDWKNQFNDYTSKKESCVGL

Acetylcholinesterase [10] = biological target: T1, Acetylcholinesterase; assay: Inhibition of AChE (unknown origin) by Ellman's method
Acetylcholinesterase [11] = biological target: T1, Acetylcholinesterase; assay: Inhibition of Acetylcholinesterase (unknown origin) using acetylthiocholine iodide as substrate incubated for 20 mins by Ellaman's method
[12] = biological target: Beta-1 adrenergic receptor (Homo sapiens) (UniProt P08588); assay: Agonist activity at ARbeta1 (unknown origin) expressed in CHO-K1 cells co-expressing G alpha 15 assessed as inhibition of isoproterenol induced calcium response upto 100 uM incubated for 10 mins by calcium mobilization assay relative to control; assay type: functional, cell-based; design: Activity: scale not given: the % may be the effect or the level left
Sequence of Beta-1 adrenergic receptor (Homo sapiens) (P08588 whole entry, looked up): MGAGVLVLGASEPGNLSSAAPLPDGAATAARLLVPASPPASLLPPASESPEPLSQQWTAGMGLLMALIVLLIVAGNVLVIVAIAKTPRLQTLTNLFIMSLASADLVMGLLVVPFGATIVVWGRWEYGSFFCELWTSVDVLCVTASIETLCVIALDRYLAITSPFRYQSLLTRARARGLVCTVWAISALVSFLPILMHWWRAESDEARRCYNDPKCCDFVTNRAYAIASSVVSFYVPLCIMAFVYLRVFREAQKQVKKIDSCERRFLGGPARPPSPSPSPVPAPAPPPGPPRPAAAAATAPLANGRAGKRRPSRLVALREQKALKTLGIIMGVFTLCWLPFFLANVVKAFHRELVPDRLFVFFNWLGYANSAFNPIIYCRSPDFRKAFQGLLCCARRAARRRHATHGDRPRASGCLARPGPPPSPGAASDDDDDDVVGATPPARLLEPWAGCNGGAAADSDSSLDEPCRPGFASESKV

RAW264.7 [13] = assay: Antiinflammatory activity in LPS-induced mouse RAW264.7 cells assessed as reduction in COX-2 level at 100 uM pretreated for 1 hr followed by LPS stimulation and measured after 48 hrs by ELISA relative to control; assay type: functional; design: scale not given: the % may be the effect or the level left; settings: time 49 hrs

`NC[C@H](CCCCNC(=O)c1cccc(O)c1O)N1C(=O)c2c(ccc(O)c2O)[C@@H](c2ccc(O)cc2)[C@]1(O)C(=O)O` gave an EC50 [1] of 38.4 µM.
`C[C@@H]1C[C@H]2[C@@H]3CCC4=CC(=O)C=C[C@]4(C)[C@@]3(F)[C@@H](O)C[C@]2(C)[C@@]1(O)C(=O)CO` [DEXAMETHASONE] gave an IC50 (RAW264.7 [2]) of 2 µM.
Work on `COc1cc(/C=C/C(=O)N2c3cc(O[C@@H]4O[C@H](CO[C@@H]5O[C@H](CO)[C@@H](O)[C@H](O)[C@H]5OC(=O)/C=C/c5cc(OC)c(O)c(OC)c5)[C@@H](O)[C@H](O)[C@H]4O)c(O)cc3C[C@H]2C(=O)O)ccc1O` yielded an Activity (RAW264.7 [3]) of 38.9% and an Activity (RAW264.7 [4]) of 82.4%.
For `Oc1cc2c(cc1O)[C@@H](C1=C[C@@]3(O)CC/C=C\CCCCN4CC[C@@H]1[C@]1(C[C@@H]5/C=C\CCCCN5[C@H]13)C4)NCC2`, the IC50 (HeLa) was 4.2 µM.
Work on `NC[C@H](CCCCNC(=O)c1cccc(O)c1O)N1C(=O)c2c(ccc(O)c2O)[C@@H](c2c[nH]c3ccccc23)[C@]1(O)C(=O)O` yielded an EC50 [1] of 30.1 µM.
In the case of `O=C1CCc2cc(O)c(O)cc2N1`, the IC50 (MCF7) is reported as 20.5 µM.
In the case of `COc1cc(/C=C/C(=O)OC[C@H]2O[C@@H](O[C@H]3[C@H](O)[C@@H](OC(=O)/C=C/c4ccc(O)c(O)c4)[C@H](OC[C@H]4O[C@@H](Oc5cc6c(cc5O)C[C@@H](C(=O)O)N6C(=O)/C=C/c5ccc(O)cc5)[C@H](O)[C@@H](O)[C@@H]4O)O[C@@H]3CO)[C@H](O)[C@@H](O)[C@@H]2O)ccc1O`, the Activity (RAW264.7 [3]) is reported as 34.7% and the Activity (RAW264.7 [4]) is reported as 81%.
Work on `O=C1C(c2ccc(O)c(O)c2)=c2c(c3c(n2CCc2ccc(O)c(O)c2)=C(c2ccc(O)c(O)c2)C(=O)c2c-3ccc(O)c2O)-c2cc(O)c(O)cc21` yielded an IC50 [5] of less than 1.4 µM, an IC50 [6] of less than 2.4 µM and an IC50 [7] of less than 0.5 µM.
With `O=C(/C=C/c1ccc(O)c(O)c1)n1ccc2cc(O)c(O)cc21` the IC50 (Acetylcholinesterase [8]) was 44.8 µM.
Work on `CC(=O)O[C@H]1C(=O)[C@@]2(C)[C@H]([C@H](OC(=O)c3ccccc3)[C@]3(O)C[C@H](OC(=O)[C@H](O)[C@@H](NC(=O)c4ccccc4)c4ccccc4)C(C)=C1C3(C)C)[C@]1(OC(C)=O)CO[C@@H]1C[C@@H]2O` [PACLITAXEL] yielded an IC50 (SGC-7901) of 0.15 µM.
`O=c1oc2cc(O)c(O)cc2c2c3c4cc(O)c(O)cc4oc(=O)c3n(CCc3ccc(O)c(O)c3)c12` showed an IC50 [5] of 3.9 µM, an IC50 [6] of 10 µM and an IC50 [7] of 3.1 µM.
With `Oc1cc2c(cc1O)[C@H](C1=C[C@@]3(O)CC/C=C\CCCCN4CC[C@@H]1[C@]1(C[C@@H]5/C=C\CCCCN5[C@H]13)C4)NCC2` the IC50 (HeLa) was 5.7 µM.
`COc1cc(/C=C/C(=O)n2ccc3cc(O)c(O)cc32)ccc1O` gave an IC50 (Acetylcholinesterase [8]) of 46.8 µM and an EC50 [9] of 13.9 µM.
With `NC[C@H](CCCCNC(=O)c1cccc(O)c1O)N1C(=O)c2c(ccc(O)c2O)[C@@H](c2ccccc2)[C@]1(O)C(=O)O` the EC50 [1] was 28 µM.
Work on `C/C=C(\C)C(=O)O[C@H]1C[C@@H](OC(C)=O)[C@@]2(C(=O)OC)CO[C@H]3[C@@H](O)[C@@](C)([C@]45O[C@@]4(C)[C@H]4C[C@@H]5O[C@@H]5OC=C[C@@]54O)[C@H]4[C@]1(CO[C@]4(O)C(=O)OC)[C@@H]32` [AZADIRACTIN] yielded an EC50 (Cholinesterase) of 68.1 µM and an EC50 (Acetylcholinesterase [10]) of 29.3 µM.
`COc1cc2c(cc1O)[C@@H]1Cc3cc(O)c(O)cc3C[N@@+]1(C)CC2` showed an IC50 (SGC-7901) of 85.1 µM.
With `COc1cc(/C=C/C(=O)O[C@H]2[C@H](OC[C@H]3O[C@@H](Oc4cc5c(cc4O)C[C@@H](C(=O)O)N5C(=O)/C=C/c4ccc(O)c(O[C@@H]5O[C@H](CO)[C@@H](O)[C@H](O)[C@H]5O)c4)[C@H](O)[C@@H](O)[C@@H]3O)O[C@H](CO)[C@@H](O[C@@H]3O[C@H](COC(=O)/C=C/c4cc(OC)c(O)c(OC)c4)[C@@H](O)[C@H](O)[C@H]3O)[C@@H]2O)ccc1O` the Activity (RAW264.7 [3]) was 22.4% and the Activity (RAW264.7 [4]) was 63.2%.
In the case of `O=C1c2c(ccc(O)c2O)CCn2cccc21`, the IC50 (Acetylcholinesterase [11]) is reported as 50.5 µM.
`COc1cc2c(cc1O)CCn1c-2c(-c2ccc(O)c(O)c2)c2c3cc(O)c(OC)cc3oc(=O)c21` showed an IC50 [5] greater than 10 µM, an IC50 [6] of 1.1 µM and an IC50 [7] of 3 µM.
In the case of `CC1=NCCc2cc(O)c(O)cc21`, the Activity [12] is reported as 15.9%.
Work on `COc1cc(/C=C/C(=O)O[C@H]2[C@H](OC[C@H]3O[C@@H](Oc4cc5c(cc4O)C[C@@H](C(=O)O)N5C(=O)/C=C/c4ccc(O)c(OC)c4)[C@H](O)[C@@H](O)[C@@H]3O)O[C@H](CO)[C@@H](O[C@@H]3O[C@H](CO)[C@@H](O)[C@H](O)[C@H]3O)[C@@H]2O)ccc1O` yielded an Activity (RAW264.7 [3]) of 45.2% and an Activity (RAW264.7 [4]) of 75.6%.
Compound `CS(=O)(=O)Nc1ccc([N+](=O)[O-])cc1OC1CCCCC1` [NS-398] has an Activity (RAW264.7 [13]) of 97.1%.
